Experimental data as given in ChEMBL document CHEMBL2331210, “New 2-benzylsulfanyl-nicotinic acid based 1,3,4-oxadiazoles: their synthesis and biological evaluation” (2013).
≈ marks a conversion by molar mass, not a printed value.

Legend:
Type in all cases: functional
[1] = system: Aspergillus niger; assay: Antimicrobial activity against Aspergillus niger MTCC 282 assessed as growth inhibition measured after overnight incubation by broth dilution method
[2] = system: Escherichia coli; assay: Antimicrobial activity against Escherichia coli MTCC 443 assessed as growth inhibition measured after overnight incubation by broth dilution method
[3] = system: Candida albicans; assay: Antimicrobial activity against Candida albicans MTCC 227 assessed as growth inhibition measured after overnight incubation by broth dilution method
[4] = system: Pseudomonas aeruginosa; assay: Antimicrobial activity against Pseudomonas aeruginosa MTCC 2488 assessed as growth inhibition measured after overnight incubation by broth dilution method
[5] = system: Staphylococcus aureus; assay: Antimicrobial activity against Staphylococcus aureus MTCC 96 assessed as growth inhibition measured after overnight incubation by broth dilution method
[6] = system: Streptococcus pyogenes; assay: Antimicrobial activity against Streptococcus pyogenes MTCC 442 assessed as growth inhibition measured after overnight incubation by broth dilution method
[7] = system: Aspergillus clavatus; assay: Antimicrobial activity against Aspergillus clavatus MTCC 1323 assessed as growth inhibition measured after overnight incubation by broth dilution method
[8] = system: Mycobacterium tuberculosis; assay: Antitubercular activity against Mycobacterium tuberculosis H37Rv assessed as growth inhibition after 12 to 28 days by L.J. agar MIC method; settings: for MIC: Mycobacterium tuberculosis, H37Rv

COc1cc(OC)nc(NC(=O)CCl)n1
MIC [1]: 1000 µg/mL (≈ 4320 µM) | MIC [2]: 100 µg/mL (≈ 432 µM) | MIC [3]: 500 µg/mL (≈ 2160 µM) | MIC [4]: 125 µg/mL (≈ 540 µM) | MIC [5]: 500 µg/mL (≈ 2160 µM) | MIC [6]: 125 µg/mL (≈ 540 µM) | MIC [7]: > 1000 µg/mL | growth inhibition (GI) [8]: 98% | MIC [8]: 250 µg/mL (≈ 1080 µM)

Cc1cnc(NC(=O)CCl)s1
MIC [1]: 500 µg/mL (≈ 2620 µM) | MIC [2]: 250 µg/mL (≈ 1310 µM) | MIC [3]: 200 µg/mL (≈ 1050 µM) | MIC [4]: 250 µg/mL (≈ 1310 µM) | MIC [5]: 500 µg/mL (≈ 2620 µM) | MIC [6]: 250 µg/mL (≈ 1310 µM) | MIC [7]: 500 µg/mL (≈ 2620 µM) | growth inhibition (GI) [8]: 97% | MIC [8]: 250 µg/mL (≈ 1310 µM)

O=C(CCl)Nc1nc(Cl)cc(Cl)n1
MIC [1]: > 1000 µg/mL | MIC [2]: 200 µg/mL (≈ 832 µM) | MIC [3]: 250 µg/mL (≈ 1040 µM) | MIC [4]: 500 µg/mL (≈ 2080 µM) | MIC [5]: 500 µg/mL (≈ 2080 µM) | MIC [6]: 200 µg/mL (≈ 832 µM) | MIC [7]: > 1000 µg/mL | growth inhibition (GI) [8]: 88% | MIC [8]: 500 µg/mL (≈ 2080 µM)

O=C(CCl)Nn1cnnc1
MIC [1]: > 1000 µg/mL | MIC [2]: 250 µg/mL (≈ 1560 µM) | MIC [3]: 1000 µg/mL (≈ 6230 µM) | MIC [4]: 250 µg/mL (≈ 1560 µM) | MIC [5]: 500 µg/mL (≈ 3110 µM) | MIC [6]: 250 µg/mL (≈ 1560 µM) | MIC [7]: > 1000 µg/mL | growth inhibition (GI) [8]: 90% | MIC [8]: 1000 µg/mL (≈ 6230 µM)

CN1CCN(C(=O)CCl)CC1
MIC [1]: > 1000 µg/mL | MIC [2]: 125 µg/mL (≈ 708 µM) | MIC [3]: 1000 µg/mL (≈ 5660 µM) | MIC [4]: 100 µg/mL (≈ 566 µM) | MIC [5]: 250 µg/mL (≈ 1420 µM) | MIC [6]: 100 µg/mL (≈ 566 µM) | MIC [7]: 500 µg/mL (≈ 2830 µM) | growth inhibition (GI) [8]: 99% | MIC [8]: 250 µg/mL (≈ 1420 µM)

Cc1ccc2sc(-c3ccc(NC(=O)CCl)cc3)nc2c1
MIC [1]: 1000 µg/mL (≈ 3160 µM) | MIC [2]: 125 µg/mL (≈ 395 µM) | MIC [3]: 500 µg/mL (≈ 1580 µM) | MIC [4]: 100 µg/mL (≈ 316 µM) | MIC [5]: 250 µg/mL (≈ 789 µM) | MIC [6]: 100 µg/mL (≈ 316 µM) | MIC [7]: 500 µg/mL (≈ 1580 µM) | growth inhibition (GI) [8]: 99% | MIC [8]: 200 µg/mL (≈ 631 µM)

NNC(=O)c1cccnc1SCc1ccccc1
MIC [1]: 500 µg/mL (≈ 1930 µM) | MIC [2]: 125 µg/mL (≈ 482 µM) | MIC [3]: 500 µg/mL (≈ 1930 µM) | MIC [4]: 200 µg/mL (≈ 771 µM) | MIC [5]: 125 µg/mL (≈ 482 µM) | MIC [6]: 125 µg/mL (≈ 482 µM) | MIC [7]: 250 µg/mL (≈ 964 µM) | growth inhibition (GI) [8]: 99% | MIC [8]: 250 µg/mL (≈ 964 µM)

S=c1[nH]nc(-c2cccnc2SCc2ccccc2)o1
MIC [1]: 1000 µg/mL (≈ 3320 µM) | MIC [2]: 100 µg/mL (≈ 332 µM) | MIC [3]: 1000 µg/mL (≈ 3320 µM) | MIC [4]: 125 µg/mL (≈ 415 µM) | MIC [5]: 100 µg/mL (≈ 332 µM) | MIC [6]: 100 µg/mL (≈ 332 µM) | MIC [7]: 200 µg/mL (≈ 664 µM) | growth inhibition (GI) [8]: 99% | MIC [8]: 100 µg/mL (≈ 332 µM)
